Measured values as given in patent US11180474B2 (BRISTOL-MYERS SQUIBB COMPANY, priority 2016, dated 2021).

Columns and labels:
human TLR9 = target: T1, human TLR9 (Homo sapiens, UniProt Q9NR96); assay: TLR9 inhibition reporter assay (HEK-Blue cells, SEAP reporter, ODN2006 stimulation); format: cell-based; conditions: HEK-Blue cells overexpressing human TLR9, ODN2006 5 nM
T1 construct: host or cells: HEK-Blue cells
T1 sequence (Q9NR96 26-1032): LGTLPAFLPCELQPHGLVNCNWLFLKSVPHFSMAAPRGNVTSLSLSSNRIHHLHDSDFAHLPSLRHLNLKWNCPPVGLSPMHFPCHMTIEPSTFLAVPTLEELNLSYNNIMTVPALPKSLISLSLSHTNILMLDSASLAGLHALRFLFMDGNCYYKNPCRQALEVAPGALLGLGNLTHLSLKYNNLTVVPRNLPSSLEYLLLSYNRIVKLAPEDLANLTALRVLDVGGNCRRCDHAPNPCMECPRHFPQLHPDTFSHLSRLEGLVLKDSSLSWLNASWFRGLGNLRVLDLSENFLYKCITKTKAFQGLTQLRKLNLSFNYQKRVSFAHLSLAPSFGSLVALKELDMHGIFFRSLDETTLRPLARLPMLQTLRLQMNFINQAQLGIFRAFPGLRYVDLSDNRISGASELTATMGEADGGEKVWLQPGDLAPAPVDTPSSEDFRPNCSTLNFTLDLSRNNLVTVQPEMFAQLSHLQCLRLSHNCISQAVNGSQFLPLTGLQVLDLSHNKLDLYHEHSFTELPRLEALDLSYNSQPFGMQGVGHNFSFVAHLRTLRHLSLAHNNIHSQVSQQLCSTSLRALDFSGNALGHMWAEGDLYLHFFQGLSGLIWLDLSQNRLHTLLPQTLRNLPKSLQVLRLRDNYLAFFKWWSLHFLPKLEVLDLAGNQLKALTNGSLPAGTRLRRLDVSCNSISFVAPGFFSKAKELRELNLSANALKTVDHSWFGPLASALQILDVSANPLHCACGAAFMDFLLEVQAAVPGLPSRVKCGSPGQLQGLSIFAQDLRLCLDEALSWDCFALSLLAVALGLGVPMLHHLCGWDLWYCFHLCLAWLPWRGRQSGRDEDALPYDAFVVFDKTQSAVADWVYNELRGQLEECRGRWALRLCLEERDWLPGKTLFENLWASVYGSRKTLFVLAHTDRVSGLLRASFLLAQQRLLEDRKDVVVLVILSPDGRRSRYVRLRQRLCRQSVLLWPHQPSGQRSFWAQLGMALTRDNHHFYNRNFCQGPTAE
In short: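 Compound treatment: 30 min, RT, 0.05 nM–50 μM final. Agonist: TLR7 gardiquimod 7.5 μM; TLR8 R848 15.9 μM; TLR9 ODN2006 5 nM. Incubation 22 h, 37 °C, 5% CO2. Readout SEAP, HEK-Blue Detection.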

human TLR8 = target: T2, human TLR8 (Homo sapiens, UniProt Q9NR97); assay: TLR8 inhibition reporter assay (HEK-Blue cells, SEAP reporter, R848 stimulation); format: cell-based; conditions: HEK-Blue cells overexpressing human TLR8, R848 15.9 μM
T2 construct: host or cells: HEK-Blue cells
T2 sequence (Q9NR97 27-1041): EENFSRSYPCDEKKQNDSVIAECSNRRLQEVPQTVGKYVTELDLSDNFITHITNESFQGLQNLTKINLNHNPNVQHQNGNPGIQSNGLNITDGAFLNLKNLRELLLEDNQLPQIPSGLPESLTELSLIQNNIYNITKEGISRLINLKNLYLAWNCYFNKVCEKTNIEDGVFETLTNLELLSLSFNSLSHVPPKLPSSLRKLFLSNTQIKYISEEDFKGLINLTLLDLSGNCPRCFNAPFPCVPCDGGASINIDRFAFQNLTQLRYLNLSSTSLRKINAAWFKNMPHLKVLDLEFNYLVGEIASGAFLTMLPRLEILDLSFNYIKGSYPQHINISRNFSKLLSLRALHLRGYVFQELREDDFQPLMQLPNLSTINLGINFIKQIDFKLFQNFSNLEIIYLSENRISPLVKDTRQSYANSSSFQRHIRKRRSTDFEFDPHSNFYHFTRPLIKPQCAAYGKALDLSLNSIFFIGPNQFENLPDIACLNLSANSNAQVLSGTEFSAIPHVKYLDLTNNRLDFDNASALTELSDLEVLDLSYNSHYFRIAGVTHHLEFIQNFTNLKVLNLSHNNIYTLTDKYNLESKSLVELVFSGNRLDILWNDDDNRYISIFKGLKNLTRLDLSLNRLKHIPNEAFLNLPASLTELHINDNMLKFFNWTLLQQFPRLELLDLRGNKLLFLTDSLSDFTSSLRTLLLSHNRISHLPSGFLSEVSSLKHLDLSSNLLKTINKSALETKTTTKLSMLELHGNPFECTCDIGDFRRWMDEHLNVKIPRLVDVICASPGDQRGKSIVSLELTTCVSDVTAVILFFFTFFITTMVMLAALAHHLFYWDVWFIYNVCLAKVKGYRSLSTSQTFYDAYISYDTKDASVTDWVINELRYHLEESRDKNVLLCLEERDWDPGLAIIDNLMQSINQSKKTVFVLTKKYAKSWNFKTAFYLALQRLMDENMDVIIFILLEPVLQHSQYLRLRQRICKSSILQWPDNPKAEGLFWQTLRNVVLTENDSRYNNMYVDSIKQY
In short: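 22 h, 37° C, 5% CO2 incubation; compounds 0.05 nM-50 μM final; TLR7 cells 15000/well, TLR8 20,000/well. Readout: SEAP via HEK-Blue Detection medium. % inhibition = signal reduction versus agonist + DMSO wells, referenced to known inhibitor.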

SMILES | IC50 (human TLR9) | IC50 (human TLR8)
COc1ccc(-c2[nH]c3ccc(C4CCN(C5CCN(C6CCCC6)CC5)CC4)cc3c2C(C)C)cc1OC [Example 202, 5-(1′-cyclopentyl-[1,4′-bipiperidin]-4-yl)-2-(3,4-dimethoxyphenyl)-3-isopropyl-1H-indole] | 340 nM | 13 nM
CCc1c(-c2ccc(OC)c(OC)c2)[nH]c2ccc(C3CCN(C(=O)CNc4nccs4)CC3)cc12 [Example 177, 1-(4-(2-(3,4-dimethoxyphenyl)-3-ethyl-1H-indol-5-yl)piperidin-1-yl)-2-(thiazol-2-ylamino)ethanone] | 3360 nM | 36 nM
CCc1c(-c2ccc(OC)c(OC)c2)[nH]c2ccc(C3CCN(C(=O)CNCC#N)CC3)cc12 [Example 161, 2-((2-(4-(2-(3,4-dimethoxyphenyl)-3-ethyl-1H-indol-5-yl)piperidin-1-yl)-2-oxoethyl)amino)acetonitrile] | ≥ 50000 nM | 332 nM
CCc1c(-c2ccc(OC)c(OC)c2)[nH]c2ccc(C3CCNCC3)cc12 [Example 122, 2-(3,4-dimethoxyphenyl)-3-ethyl-5-(piperidin-4-yl)-1H-indole] | 1410 nM | 26 nM
COc1ccc(-c2[nH]c3ccc(C4CCN(C(=O)CNCC(C)O)CC4)cc3c2C(C)C)cc1OC (stereo not shown) [Example 210, 1-(4-(2-(3,4-dimethoxyphenyl)-3-isopropyl-1H-indol-5-yl)piperidin-1-yl)-2-((2-hydroxypropyl)amino)ethan-1-one] | 1930 nM | 25 nM
CCc1c(-c2ccc(OC)c(OC)c2)[nH]c2c(F)cc(C3CCN(CCNC)CC3)cc12 [Example 191, 2-(4-(2-(3,4-dimethoxyphenyl)-3-ethyl-7-fluoro-1H-indol-5-yl)piperidin-1-yl)-N-methylethan-1-amine] | 1220 nM | 110 nM
COc1ccc(-c2[nH]c3ccc(C4CCN(C5CCN(CC6CC6)CC5)CC4)cc3c2C(C)C)cc1OC [Example 198, 5-(1′-(cyclopropylmethyl)-[1,4′-bipiperidin]-4-yl)-2-(3,4-dimethoxyphenyl)-3-isopropyl-1H-indole di trifluoroacetic acid] | 490 nM | 22 nM
COc1ccc(-c2[nH]c3ccc(C4CCN(C(=O)CNC56CC7CC(CC(O)(C7)C5)C6)CC4)cc3c2C(C)C)cc1OC [Example 218, 1-(4-(2-(3,4-dimethoxyphenyl)-3-isopropyl-1H-indol-5-yl)piperidin-1-yl)-2-(((1r,3s,5R,7S)-3-hydroxyadamantan-1-yl)amino)ethan-1-one] | 1280 nM | 54 nM
COc1ccc(-c2[nH]c3ccc(C4CCN(C(=O)CNCCO)CC4)cc3c2C(C)C)cc1OC [Example 212, 1-(4-(2-(3,4-dimethoxyphenyl)-3-isopropyl-1H-indol-5-yl)piperidin-1-yl)-2-((2-hydroxyethyl)amino)ethan-1-one] | 1190 nM | 20 nM
CCCc1c(-c2ccc(OC)c(OC)c2)[nH]c2ccc(C3CCN(C4CCN(CC(C)C)CC4)CC3)cc12 [Example 121, 2-(3,4-dimethoxyphenyl)-5-(1′-isobutyl-[1,4′-bipiperidin]-4-yl)-3-propyl-1H-indole-di-trifluoroacetic acid] | 378 nM | 65 nM
COc1ccc(-c2[nH]c3ccc(C4CCN(C5CCN(C)CC5)CC4)cc3c2C(C)C)cc1OC [Example 200, 2-(3,4-dimethoxyphenyl)-3-isopropyl-5-(1′-methyl-[1,4′-bipiperidin]-4-yl)-1H-indole] | 1260 nM | 27 nM
COc1ccc(-c2[nH]c3ccc(C4CCN(C5CCN(CC(C)C)CC5)CC4)cc3c2Cl)cc1OC [Example 120, 3-chloro-2-(3,4-dimethoxyphenyl)-5-(1′-isobutyl-[1,4′-bipiperidin]-4-yl)-1H-indole di-trifluoroacetic acid] | 157 nM | 1260 nM

Further compounds by falling IC50 (human TLR9), results first:

IC50 (human TLR9) | IC50 (human TLR8) | SMILES
2000 nM | 112 nM | CCN(CC)C(=O)CCN(C)CC(=O)N1CCC(c2ccc3[nH]c(-c4ccc(OC)c(OC)c4)c(C(C)C)c3c2)CC1 [Example 204, 3-((2-(4-(2-(3,4-dimethoxyphenyl)-3-isopropyl-1H-indol-5-yl)piperidin-1-yl)-2-oxoethyl)(methyl)amino)-N,N-diethylpropanamide]
1150 nM | 620 nM | CCc1c(-c2ccc(OC)c(OC)c2)[nH]c2c(F)cc(C3CCNCC3)cc12 [Example 189, 2-(3,4-dimethoxyphenyl)-3-ethyl-7-fluoro-5-(piperidin-4-yl)-1H-indole]
990 nM | 25 nM | COc1ccc(-c2[nH]c3ccc(C4CCN(C(=O)CN5CCC(N6CCCCC6)CC5)CC4)cc3c2C(C)C)cc1OC [Example 211, 2-([1,4′-bipiperidin]-1′-yl)-1-(4-(2-(3,4-dimethoxyphenyl)-3-isopropyl-1H-indol-5-yl)piperidin-1-yl)ethan-1-one]
966 nM | 6870 nM | COc1ccc(-c2[nH]c3cc(C)c(C4CCNCC4)cc3c2C(C)C)cc1OC [Example 205, 2-(3,4-dimethoxyphenyl)-3-isopropyl-6-methyl-5-(piperidin-4-yl)-1H-indole]
830 nM | 95 nM | CNCCN1CCC(c2ccc3[nH]c(-c4ccc(OC)c(OC)c4)c(CC(C)C)c3c2)CC1 [Example 116, trifluoroacetic acid]
410 nM | 150 nM | CCc1c(-c2ccc(OC)c(OC)c2)[nH]c2ccc(C3CCN(C4CCN(Cc5c[nH]cn5)CC4)CC3)cc12 [Example 125, 5-(1′-((1H-imidazol-4-yl)methyl)-[1,4′-bipiperidin]-4-yl)-2-(3,4-dimethoxyphenyl)-3-ethyl-1H-indole]
360 nM | 457 nM | COc1ccc(-c2[nH]c3ccc(C4CCN(C5CCN(Cc6ccccc6)CC5)CC4)cc3c2C)cc1OC [Example 9, 5-(1′-benzyl-[1,4′-bipiperidin]-4-yl)-2-(3,4-dimethoxyphenyl)-3-methyl-1H-indole]
267 nM | 345 nM | CCOC(=O)c1c(C)[nH]c(CN2CCC(N3CCC(c4ccc5[nH]c(-c6ccc(OC)c(OC)c6)c(CC)c5c4)CC3)CC2)c1C [Example 127, ethyl 5-((4-(2-(3,4-dimethoxyphenyl)-3-ethyl-1H-indol-5-yl)-[1,4′-bipiperidin]-1′-yl)methyl)-2,4-dimethyl-1H-pyrrole-3-carboxylate]
